Assay results from publication PMC3005942, “Cloning, Expression, and Purification of a Nitric Oxide Synthase-Like Protein from Bacillus cereus” (Biochemistry Research International, 2009).

What was measured:
bcNOS [1] = biological target: T1, bcNOS (Bacillus cereus, UniProt Q814I7); assay: H2O2-dependent NOHA oxidation to nitrite, plate reader; format: biochemical; settings: H2O2, 25 °C, activator
T1 construct: gene BC_5444; full length, 356 residues, 43 kDa, homodimer; N-terminal His6 tag (pET28a, NdeI/EcoRI), E. coli BL21(DE3) pLysS; heme protein
T1 sequence (Q814I7 1-356): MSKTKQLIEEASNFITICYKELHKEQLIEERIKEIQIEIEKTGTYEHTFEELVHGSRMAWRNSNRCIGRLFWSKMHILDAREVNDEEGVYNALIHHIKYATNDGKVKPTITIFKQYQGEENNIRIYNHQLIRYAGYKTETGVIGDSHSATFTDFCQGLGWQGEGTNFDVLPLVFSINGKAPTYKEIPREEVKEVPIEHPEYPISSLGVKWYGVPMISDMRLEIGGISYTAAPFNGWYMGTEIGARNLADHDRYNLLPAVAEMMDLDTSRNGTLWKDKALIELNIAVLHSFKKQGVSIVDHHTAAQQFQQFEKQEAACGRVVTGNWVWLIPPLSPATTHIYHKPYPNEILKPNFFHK

bcNOS [2] = biological target: T1, bcNOS; assay: difference spectroscopy, double-reciprocal analysis; format: binding; settings: distal sixth ligand of ferric heme

Compound	H2O2-dependent NOHA oxidation to nitrite, plate reader (bcNOS [1])	Kd (bcNOS [2]) [µM]
Nc1nc2c(c(=O)[nH]1)N[C@@H](CNc1ccc(C(=O)N[C@@H](CCC(=O)O)C(=O)O)cc1)CN2 [THF]	in the presence of NOHA and THF the activity doubled	
c1c[nH]cn1 [imidazole]		181 ± 13
